Laboratory results from ChEMBL document CHEMBL1687772, “Lysyl-phosphatidylglycerol attenuates membrane perturbation rather than surface association of the cationic antimicrobial peptide 6W-RP-1 in a model membrane system: implications for daptomycin resistance” (Antimicrob Agents Chemother, 2010).
Activity calls are given as the source filed them. No cut-off for these calls is given here.

Assays:
Lipid bilayer [1] = assay: Binding affinity to POPG:POPC:lysyl-DOPG:7MC-POPE unilamellar lipid vesicle with >30 mol% of lysyl-DOPG at 0.5 uM by FRET assay
Lipid bilayer [2] = assay: Binding affinity to POPG:POPC:lysyl-DOPG:7MC-POPE unilamellar lipid vesicle with <30 mol% of lysyl-DOPG at 0.5 uM by FRET assay

Activity (Lipid bilayer [1]): inactive | Activity (Lipid bilayer [2]): Active
Substance: H-ALYKKWKKKLLKSLKRLG-OH
